# Measurements published in patent publication US20040019095A1, “N, N'-dimethylated N-confused porphyrins” (priority 2002, published 2004).
# Assay: Singlet oxygen test with DPBF (decay of DPBF absorption at 418 nm on irradiation)
# Type: physicochemical
# Conditions: solution of DPBF and porphyrin salt irradiated with halogen lamp, filter ~700 nm; b88: four 20 seconds intervals
# Excerpt: Alternatively, the ability to generate singlet oxygen may be tested as follows. DPBF (1,3-diphenylisobenzofuran)^8 is used to determine the ability of N,N′-dimethylated N-confused porphyrin salts to generate singlet oxygen. DPBF reacts quickly with singlet oxygen and its absorption decay around 418 nm can be easily monitored. […] A solution containing DPBF and N,N′-dimethylated N-confused porphyrin salts (e.g. compound 9 in FIG. 3) was irradiated with a halogen lamp using a filter (˜700 nm), and monitored by UV-vis spectroscopy at 418 nm.
# Pyrrole (Acros) was distilled from CaH2 before use. The silica gel was 230-400 mesh Silicycle). Activity III basic alumina was obtained by adding 6% water to activity I Brockman basic alumina, 60-325 mesh (Fisher). All other materials and solvents were used as received. The NMR spectra were recorded on a Bruker WH-400 or a Bruker AV-400 in the solvents indicated and were referenced to residual solvent peaks. Elemental analyses were performed on a Carlo Erba Elemental Analyzer1108. The UV-vis spectra were measured on a Cary 50. Mass spectra were determined on a KRATOS Concept IIHQ hybrid mass spectrometer. Irradiations were carried with a 250 W Osram HLX 64655 […] in an Oriel lamp housing (model 66184). The light output passed through a glass filter: P70-700-S-Corion. […]
substance,measurement,value
"N,N′-Dimethylated 2-aza-5,10,15,20-tetra(p-tolyl)-21-carba-porphyrin.HI [compound 9]",decay of UV-vis signal at 418 nm (singlet oxygen generation),Substantial decay
